From patent US5578622A, “Isothiazole derivatives and their uses” (Asamura Patent Office, priority 1994, dated 1996)

How the values were obtained:
[1] = system: Candida albicans IFO 1270; test: In vitro antimycotic activity on Candida albicans; assay type: cell-based; conditions: IFO1270, 10 (ppm), SGB, 37° C., 48 hours, turbidity at 650 nm, read-out: Antimycotic activity (growth inhibitory rate), C.albicans
Experimental: 3-1 In vitro antimycotic activity on Candida albicans
Candida albicans IFO 1270 pre-cultured on a Sabouraud's glucose agar (SGA) plate medium at 37° C. […] was suspended in a sterilized physiological salt solution. The number of fungi in the resulting suspension was counted with a globulimeter, and adjusted so as to be 1×10^7 cell/ml with a sterilized physiological salt solution. This solution was used as an inoculum solution. Thereafter, 0.1 ml of this solution and 0.1 ml of a dimethyl sulfoxide (DMSO) solution of the test compound were added to 9.8 ml of Sabouraud's glucose broth (SGB), and shake-cultured at 37° C. for 48 hours. After culture, the medium turbidity was measured at 650 nm, and the growth-inhibitory rate of the fungus was calculated according to the following equation.
Growth inhibitory rate (%)=(1-W/Y)×100
Y: Medium turbidity of DMSO control group
W: Medium turbidity of test compound group
From this inhibitory rate, the antimycotic activity was shown by the symbols A to D. The test results of the test compounds are shown in Table 4.

[2] = system: Aspergillus fumigatus TIMM 0063; test: In vitro antimycotic activity on Aspergillus fumigatus; assay type: cell-based; conditions: TIMM0063, 10 (ppm), Casitone agar, 37° C., 48 hours, read-out: Antimycotic activity (growth inhibitory rate), A.fumigatus
Experimental: 3-2 In vitro antimycotic activity on Aspergillus fumigatus.
To Aspergillus fumigatus TIMM 0063 precultured at 37° C. for 48 hours on a potato dextrose agar (PDA) slant medium was added a sterilized physiological salt solution containing 0.1%(W/V) Tween 80. After conidia were made free from the solution, the solution was filtered through a sterilized two-sheet gauze to remove the mycelium mass. The number of the conidia in the resulting suspension was counted with a globulimeter and adjusted so as to be 1×10^5 conidia/ml with a sterilized physiological salt solution containing 0.1%(W/V) Tween 80. This solution was used as an inoculum solution. Casitone agar plate medium containing the DMSO solution of the test compound in a rate of 1% (V/V) was inoculated with the inoculum solution at four places thereof with a microplanter, and cultured with the medium allowed to stand at 37° C. for 48 hours. After culture, the diameter of the mycelium disks cultivated at the four inoculated parts was measured, and its mean value was obtained. The growth inhibitory rate was calculated according to the following equation, and the antimycotic activity was shown in the same manner as in Test Example 3-1.
Growth inhibitory rate (%)=(1-W'/Y')×100
Y': Diameter of mycelium disk of DMSO control group
W': Diameter of mycelium disk of test compound group

[3] = system: Trichophyton mentagrophytes IFO 5810; test: In vitro antimicrobial activity on Trichophyton mentagrophytes; assay type: cell-based; design: key: A: Fungus is not observed at all with the naked eye.; B: Presence of fungus is slightly observed on shaking the test tube.; C: Fungus of about less than one-fourth that of the DMSO control group is observed with the naked eye.; Fungus of about less than half that of the DMSO control group is observed with the naked eye; conditions: 10 (ppm); SGB, 27° C., 7 days
Experimental: 3-3 In vitro antimicrobial activity on Trichophyton mentagrophytes To Trichophyton mentagrophytes IFO 5810 precultured at 27° C. for 2 to 3 weeks on a Sabouraud's glucose agar (SGA) slant medium was added a sterilized physiological salt solution containing 0.1% (W/V) Tween 80. After conidia were made free from the solution, the solution was filtered through a sterilized two-sheet gauze to remove the mycelium mass. The number of the conidia in the resulting suspension was counted with a globulimeter and adjusted so as to be 1×10^6 conidia/ml with a sterilized physiological salt solution containing 0.1%(W/V) Tween 80. This solution was used as an inoculum solution. Thereafter, 0.1 ml of this solution and 0.1 ml of the dimethyl sulfoxide (DMSO) solution of the test compound were added to 9.8 ml of Sabouraud's glucose broth (SGB), and shake-cultured at 27° C. for 7 days.

[4] = system: Gibberella fujikuroi ("Bakanae" disease of rice); test: Test for rice seed-disinfecting effect; assay type: in vivo; conditions: Fusarium fujikuroi, 504 h, seed immersion 25° C. 24 hours, three weeks after treatment, read-out: Controlling effect (control of disease), "Bakanae" disease of rice
Experimental: 2-1 Test for rice seed-disinfecting effect
Unhulled rice infected with Gibberella fujikuroi ("Bakanae" disease of rice) was immersed in a test compound adjusted to 1000 ppm at 25° C. for 24 hours. Water was lightly swished off the seed, which was then sowed and germinated for two days. Three weeks after treatment with the solution containing the compound, the rate of the infected seedlings was examined, and the control of disease was calculated by comparison with that of the untreated plot. The control of disease was shown as a controlling effect on the basis of the following standard.

Aspergillus niger = test: Test for wood rotting-preventing effect (mycelium growth inhibition on malt extract agar); assay type: cell-based; conditions: 28° C.±2° C., 2 to 10 days, read-out: Rotting preventing effect (mycelium growth-inhibitory rate), ASN
Experimental: (§1) The following fungi were cultured in agar media, respectively, and mycelial disks on the media were stamped out together with the agar using a cork borer of 4 mm in diameter. The resulting mycelial disks on agar were used as an inoculum. Each test compound of 50 ppm was added to a malt extract agar medium and added in parts to Petri dishes. The above prepared inoculum was put on the Petri dishes and cultured at 28° C.±2° C. Two to ten days after inoculation, the diameter of the mycelial disk of each fungus was measured, and the mycelium growth-inhibitory rate was obtained according to the following equation. [formula] The mycelium growth-inhibitory rate (%) is indicated by the following symbols as a fungicidal effect on each fungus, and the results are shown in Table 2. | ASN: Aspergillus niger

Rhizopus nigricans = test: as above; assay type: cell-based; conditions: Rhizopus stolonifer, 28° C.±2° C., 2 to 10 days, read-out: Rotting preventing effect (mycelium growth-inhibitory rate), RHN
Experimental: as §1, with “RHN: Rhizopus nigricans” for “ASN: Aspergillus niger”

[5] = system: Pseudoperonospora cubensis; test: Test for controlling effect on downy mildew of cucumber; assay type: in vivo; conditions: 168 h, 200 ppm spray, one day before inoculation, cucumber 2-leaf stage, read-out: Controlling effect (control of disease), Downy mildew of cucumber
Experimental: 2-2 Test for controlling effect on downy mildew of cucumber (Pseudoperonospora cubensis) A test compound adjusted to 200 ppm was sprayed onto cucumber at the 2-leaf stage cultivated in pots. After one day, the cucumber was inoculated by spraying the zoospore suspension of Pseudoperonospora cubensis. After inoculation, the cucumber was placed in a 25° C.-humid room for 1 day and then in a greenhouse for 6 days. Thus, the cucumber was made to be infected with downy mildew. The control of disease of the test compound is calculated by comparing the degree of infection of each leaf with that in the untreated plot. The control of disease is shown as a controlling effect in the same manner as in Test Example 2-1.

Tyromyces palustris = test: Test for wood rotting-preventing effect (mycelium growth inhibition on malt extract agar); assay type: cell-based; conditions: 28° C.±2° C., 2 to 10 days, read-out: Rotting preventing effect (mycelium growth-inhibitory rate), TYP
Experimental: as §1, with “TYP: Tyromyces palustris” for “ASN: Aspergillus niger”

Rhizoctonia solani = test: Test for controlling effect on sheath blight of rice; assay type: in vivo; conditions: 120 h, 200 ppm spray, 24 hours after inoculation, rice 4-leaf stage, five days after inoculation, read-out: Controlling effect (control of disease), Sheath blight of rice
Experimental: 2-3 Test for controlling effect on sheath blight of rice (Rhizoctonia solani) Rice seedlings at the 4-leaf stage were inoculated with the mycelium of sheath blight of rice (Rhizoctonia solani). After 24 hours, a test medicine solution adjusted to 200 ppm was sprayed onto the seedlings. After air-drying, the seedlings were placed in a humid room for 24 hours where the temperature was kept at 28° C. and humidity was kept at 98%. Thereafter, the seedlings were transferred to a greenhouse, and five days after inoculation, the degree of infected area was examined. The control of disease was calculated by comparison with that in the untreated plot. The control of disease is shown as a controlling effect in the same manner as in Test Example 2-1.

Trichoderma viride = test: Test for wood rotting-preventing effect (mycelium growth inhibition on malt extract agar); assay type: cell-based; conditions: 28° C.±2° C., 2 to 10 days, read-out: Rotting preventing effect (mycelium growth-inhibitory rate), TRV
Experimental: as §1, with “TRV: Trichoderma viride” for “ASN: Aspergillus niger”

CC(C)Oc1nsc(OCCC#CI)c1C#N [Compound 83] was tested, and the inhibition of growth at 10 µg/mL [1] was 100%, the inhibition of growth at 10 µg/mL [2] was 100% and the “Antimycotic activity (degree of growth, naked eye), T.mentagrophytes” value (shortened to “Antimycotic activity”) [3] was “A”.
In the case of CC(C)Oc1nsc(SCOCC#CI)c1C#N [Compound 56], the inhibition of growth at 10 µg/mL [1] was 100%, the inhibition of growth at 10 µg/mL [2] was 100% and the “Antimycotic activity” value [3] was “A”.
N#Cc1c(OCOCC#CI)nsc1SCOCC#CI [Compound 141] was tested, and the inhibition of growth at 10 µg/mL [1] was 100%, the inhibition of growth at 10 µg/mL [2] was 100% and the “Antimycotic activity” value [3] was “A”.
CCS(=O)(=O)c1snc(OCCC#CI)c1C#N [Compound 78] was tested, and the pest or weed control at 1000 ppm [4] was 95 to 100%, the inhibition at 50 ppm (Aspergillus niger) was 95 to 100% and the inhibition at 50 ppm (Rhizopus nigricans) was 95 to 100%. The pest or weed control at 200 ppm [5] was 80 to 94%, the inhibition at 50 ppm (Tyromyces palustris) was 95 to 100% and the pest or weed control at 200 ppm (Rhizoctonia solani) was 95 to 100%. The inhibition at 50 ppm (Trichoderma viride) was 95 to 100%.
With COc1nsc(SCOCC#CI)c1C#N [Compound 53, 3-methoxy-4-cyano-5-(3-iodo-2-propynyloxymethylthio)isothiazole] the pest or weed control at 1000 ppm [4] was 95 to 100%, the inhibition at 50 ppm (Aspergillus niger) was 95 to 100% and the inhibition at 50 ppm (Rhizopus nigricans) was 80 to 94%. It also gave a pest or weed control at 200 ppm [5] of 95 to 100%, an inhibition at 50 ppm (Tyromyces palustris) of 95 to 100% and a pest or weed control at 200 ppm (Rhizoctonia solani) of 95 to 100%. The inhibition at 50 ppm (Trichoderma viride) was 95 to 100%.
In the case of CC(C)Sc1snc(OCOCC#CI)c1C#N [Compound 88], the inhibition of growth at 10 µg/mL [1] was 100%, the inhibition of growth at 10 µg/mL [2] was 100% and the “Antimycotic activity” value [3] was “A”.
For CCS(=O)(=O)c1snc(OCOCC#CI)c1C#N [Compound 94], the pest or weed control at 1000 ppm [4] was 95 to 100%, the inhibition at 50 ppm (Aspergillus niger) was 95 to 100% and the inhibition at 50 ppm (Rhizopus nigricans) was 95 to 100%. It also gave a pest or weed control at 200 ppm [5] of 95 to 100%, an inhibition at 50 ppm (Tyromyces palustris) of 95 to 100% and a pest or weed control at 200 ppm (Rhizoctonia solani) of 95 to 100%. It also gave an inhibition at 50 ppm (Trichoderma viride) of 95 to 100%.
Work on N#Cc1c(OCC#CI)nsc1N1CCOCC1 [Compound 35] yielded a pest or weed control at 1000 ppm [4] of 80 to 94%, an inhibition at 50 ppm (Aspergillus niger) of 95 to 100% and an inhibition at 50 ppm (Rhizopus nigricans) of 80 to 94%. It also gave a pest or weed control at 200 ppm [5] of 95 to 100%, an inhibition at 50 ppm (Tyromyces palustris) of 95 to 100% and a pest or weed control at 200 ppm (Rhizoctonia solani) of 80 to 94%. For the same compound, the inhibition at 50 ppm (Trichoderma viride) was 95 to 100%.
With CC(OCC#CI)Oc1nsc(N(C)C)c1C#N (stereo not shown) [Compound 123] the inhibition of growth at 10 µg/mL [1] was 100%, the inhibition of growth at 10 µg/mL [2] was 100% and the “Antimycotic activity” value [3] was “A”.
With CCSc1snc(OCOC(C)(C)C#CI)c1C#N [Compound 101] the inhibition of growth at 10 µg/mL [1] was 100%, the inhibition of growth at 10 µg/mL [2] was 100% and the “Antimycotic activity” value [3] was “A”.
CC(C#CI)OCOc1nsc(N(C)C)c1C#N (stereo not shown) [Compound 115] was tested, and the pest or weed control at 1000 ppm [4] was 95 to 100%, the inhibition at 50 ppm (Aspergillus niger) was 95 to 100% and the inhibition at 50 ppm (Rhizopus nigricans) was 95 to 100%. The pest or weed control at 200 ppm [5] was 80 to 94%, the inhibition at 50 ppm (Tyromyces palustris) was 95 to 100% and the pest or weed control at 200 ppm (Rhizoctonia solani) was 95 to 100%. For the same compound, the inhibition at 50 ppm (Trichoderma viride) was 95 to 100%.
For CC(OCC#CI)Oc1nsc(SC(F)F)c1C#N (stereo not shown) [Compound 122], the pest or weed control at 1000 ppm [4] was 95 to 100%, the inhibition at 50 ppm (Aspergillus niger) was 95 to 100% and the inhibition at 50 ppm (Rhizopus nigricans) was 95 to 100%. For the same compound, the pest or weed control at 200 ppm [5] was 95 to 100%, the inhibition at 50 ppm (Tyromyces palustris) was 95 to 100% and the pest or weed control at 200 ppm (Rhizoctonia solani) was 95 to 100%. The inhibition at 50 ppm (Trichoderma viride) was 95 to 100%.
For CCSc1snc(OCCC#CI)c1C#N [Compound 71], the inhibition of growth at 10 µg/mL [1] was 100%, the inhibition of growth at 10 µg/mL [2] was 100% and the “Antimycotic activity” value [3] was “A”.
In the case of CC(OCC#CI)Sc1snc(OC(F)F)c1C#N (stereo not shown) [Compound 127], the pest or weed control at 1000 ppm [4] was 95 to 100%, the inhibition at 50 ppm (Aspergillus niger) was 95 to 100% and the inhibition at 50 ppm (Rhizopus nigricans) was 95 to 100%. It also gave a pest or weed control at 200 ppm [5] of 95 to 100%, an inhibition at 50 ppm (Tyromyces palustris) of 95 to 100% and a pest or weed control at 200 ppm (Rhizoctonia solani) of 95 to 100%. It also gave an inhibition at 50 ppm (Trichoderma viride) of 95 to 100%.
